Values joined by “and” are separate entries in the source; they are usually repeats but may differ in a detail not shown here. Identical values can stand only once. “Also recorded” adds a separate entry of the source.
Experiments:
[1] = system: dogs with acute myocardial infarction; settings: US2004014671A1; cited from earlier work
[2] = system: patients with advanced CHF and reduced EF; assay: Trial safety and clinical outcomes (hypotension, arrhythmia, ischemia, symptoms, events); assay type: in vivo, human
Description: Safety outcomes included reduction in systolic blood pressure, hypotension, and symptomatic hypotension, prolongation of the QTc, ischemia, and arrhythmia during or after infusion, and clinical outcomes.
The following symptoms were assessed as yes or no prior to infusion and after 30, 60, 120 min and 30 min after infusion and at the 2-5 days follow-up; headache, dizziness, dyspnea, central chest pain, flush, sleepiness, upset stomach and other symptoms. The following signs were recorded prior to start of infusion and after lunch; rales, peripheral oedema, jugular venous distension, hepatomegaly and S3 gallop.
Hypotension was assessed in two ways: The difference in change in blood pressure between the groups was quantified, and hypotension in any one patient was defined as a drop of systolic blood pressure of >20 mm Hg or to <80 mm Hg.
The difference in change in heart rate between the groups was quantified. Bradycardia was defined as a reduction in heart rate of >15 beats per minute, to a heart rate <40 beats per minute, an increase in PQ time by >20 ms, or AV block II-III. In individual patients, tachycardia was defined as an increase in heart rate by >10 beats per minute or heart rate >110 beats per minute. Ventricular extraystoles were quantified and ventricular tachycardia was defined as non-sustained if ≥3 beats in a row up to ≤30 seconds, and sustained if >30 seconds. Supra-ventricular arrhythmia was defined as ectopic atrial tachycardia, atrial flutter or atrial fibrillation, or AV-nodal tachycardia of >3 seconds duration. Ghrelin may […] hERG channels and as such cause a prolongation of the QTc interval on the EKG, which theoretically could predispose to arrhythmia. Therefor we monitored QTc.
Ischemia was assessed in two ways: The difference in change in troponin T between the groups was quantified, and ischemia in any one patient was defined as symptoms of ECG changes consistent with ischemia, or a rise in troponin T of >50%.
Patients were followed in the medical record until 30 Apr. 2017. Outcomes were freedom from all-cause death; all cause death or HF hospitalization; all cause death or heart transplantation or left ventricular assist device, and a combination of all these.

CCCCCCCC(=O)OC[C@H](NC(=O)[C@H](CO)NC(=O)CN)C(=O)N[C@@H](Cc1ccccc1)C(=O)N[C@@H](CC(C)C)C(=O)N[C@@H](CO)C(=O)N1CCC[C@H]1C(=O)N[C@@H](CCC(=O)O)C(=O)N[C@@H](Cc1cnc[nH]1)C(=O)N[C@@H](CCC(N)=O)C(=O)N[C@@H](CCCNC(=N)N)C(=O)N[C@H](C(=O)N[C@@H](CCC(N)=O)C(=O)N[C@@H](CCC(N)=O)C(=O)N[C@@H](CCCNC(=N)N)C(=O)N[C@@H](CCCCN)C(=O)N[C@@H](CCC(=O)O)C(=O)N[C@@H](CO)C(=O)N[C@@H](CCCCN)C(=O)N[C@@H](CCCCN)C(=O)N1CCC[C@H]1C(=O)N1CCC[C@H]1C(=O)N[C@@H](C)C(=O)N[C@@H](CCCCN)C(=O)N[C@@H](CC(C)C)C(=O)N[C@@H](CCC(N)=O)C(=O)N1CCC[C@H]1C(=O)N[C@@H](CCCNC(=N)N)C(=O)O)C(C)C [Ghrelin]
improvement of CO [1]: not
troponin T in the one patient with >50% increase ([2]; Baseline): 31 ng/L
patients with flush ([2]; at 60 min, vs. 0 placebo, p=0.006): 7
troponin T in the one patient with >50% increase ([2]; at FU): 164 ng/L
incidence of hypotension ([2]; drop of systolic BP >20 mm Hg or to <80 mm Hg): no incidence of hypotension; also recorded: no events of hypotension or symptomatic hypotension
troponin T in the one patient with >50% increase ([2]; during infusion (successive samples)): 38 ng/L and 42 ng/L and 43 ng/L and 34 ng/L
patients with a >50% increase in troponin T ([2]; ghrelin group (n = 15)): One
effect on heart rate ([2]; human, in vivo): no effect
incidence of ventricular tachy or brady arrhythmias ([2]; human, in vivo): no effect
symptoms or EKG changes consistent with ischemia ([2]; human, in vivo): no symptoms or EKG changes consistent with ischemia
clinical events vs placebo ([2]; over 90 days follow-up): no differences in clinical events

Reference: US20230346889A9, “TREATMENT OF ACUTE HEART FAILURE” (AnaCardio R&D AB, priority 2019, published 2023)
